Data taken from EP0633262A1, “Novel isatineoxime derivatives, their preparation and use” (NEUROSEARCH A/S, priority 1993, dated 1995).

Target: AMPA ((RS)-α-amino-3-hydroxy-5-methyl-4-isoxazolepropionic acid) binding site
Experiment: AMPA binding assay (T. Honoré et al., Neuroscience Letters 54, 27-32 (1985))
Details: AMPA binding assay as described by T. Honoré et al.; read-out: IC₅₀
Protocol: In the same assay 8-Methyl-5,7,8,9-tetrahydro-1H-pyrrolo[3,2-h]isoquinoline-2,3-dione-3-oxime has an IC₅₀ of 0.2 µM.

Compound | IC50
CN1CC=C2C(=C3NC(=O)C(=NO)C3=CC2S(=O)(=O)N(C)C)C1 (centres unmarked) [Example 6, 5-dimethylsulfamoyl-8-Methyl-5,7,8,9-tetrahydro-1H-pyrrolo[3,2-h]isoquinoline-2,3-dione-3-oxime] | 400 nM
CN1CC=C2CC=C3C(=NO)C(=O)NC3=C2C1 [Example 7, 8-Methyl-5,7,8,9-tetrahydro-1H-pyrrolo[3,2-h]isoquinoline-2,3-dione-3-oxime] | 200 nM
